One assay deals with Hep3B cells. As to the kind of experiment: BrdU incorporation (proliferation) in Hep3B cells. Format: cell-based, human. The method, then:
Light microscopic images (10X) of BrdU immunostained cells are also shown. Hep3B cells were maintained in serum-free conditions for 24 hours and were pre-treated with AF-353 (5 μM) for 30 minutes, prior to treatment with ATP (100 μM) for 24 hours. BrdU-positive cells are expressed as a percentage of total number of cells. Data represents mean±SEM, n=3-6, *p<0.05 vs untreated (un). To determine whether P2 purinergic receptor activation influences HCC cell proliferation, BrdU incorporation was assessed in HCC cells maintained in SFM for 24 hours and treated with ATP for 24 hours. […] Hep3B, 46%; SNU-387, 47% and PLC/PRF/5, 24%), identifying nucleotides as liver cancer cell mitogens (FIG. 7A). Normal human primary hepatocytes isolated from healthy adults (no known history of HCC) in suspension or freshly-frozen prior to shipment (Cryoport Systems, CA) were purchased from Triangle Research Labs, NC. […] Formalin-fixed and paraffin embedded liver sections from HCC patients were analyzed by immunohistochemistry with anti-P2X3 antibody (Abcam, Cambridge, Mass.). […] BrdU positive cells were counted and expressed as a percentage of the total number of cells in ten randomly selected high-power fields (20×) per coverslips.

For another assay, the system named is PLC/PRF/5 cells. The assay can be described thus: Western blotting of cyclin D3 in PLC/PRF/5 cells. The format is cell-based, human. The note with it: ATP 24 hours, serum-free. As to the method: HCC cells (Huh7, Hep3B, SNU-387, and PLC/PRF/5) maintained in serum-free conditions were treated with ATP for 24 hours and total protein extracts were analyzed by Western blotting for cyclin D3 expression. The α-tubulin was utilized as the protein loading control. Data represents mean±SD, n=3-6, *p<0.05 vs untreated (un).
Normal human primary hepatocytes isolated from healthy adults (no known history of HCC) in suspension or freshly-frozen prior to shipment (Cryoport Systems, CA) were purchased from Triangle Research Labs, NC. […]
Total protein extracts were obtained by homogenizing cells in total lysis buffer (50 mM Tris-HCl, pH 7.5, 0.5 M NaCl, 2 mM EGTA, 2 mM EDTA, 1.0% Triton X-100, 0.25% Deoxycholate, 1 m/ml pepstatin, 1.0 m/ml leupeptin, 1.0 m/ml aprotinin, 1.0 mM phenylmethylsulfonyl fluoride, 1.0 mM Dithiothreitol, 2.0 mM activated Na3VO4, and 2.0 mM NaF) and centrifuging at 14,000 rpm for 10 min (4° C.). Equal amounts of total proteins as determined by BCA protein Assay (Pierce, Rockford, Ill.) were analyzed by Western blotting. […]

SMILES strings stand for the structures. “Also recorded” adds a separate entry of the source.

On to `COc1cc(C(C)C)c(Oc2cnc(N)nc2N)cc1I` [AF-353], for which the “effect on ATP-mediated induction of BrdU incorporation” value in the assay on Hep3B cells (AF-353 5 μM pre-treatment 30 minutes, ATP 100 μM 24 hours) was “completely attenuated; also recorded: attenuates”.
Regarding `Nc1ncnc2c1ncn2[C@@H]1O[C@H](COP(=O)(O)OP(=O)(O)OP(=O)(O)O)[C@@H](O)[C@H]1O` [ATP], the “proliferation (BrdU incorporation) induced by ATP” value in the assay on Hep3B cells (SFM 24 hours, ATP 24 hours) came out at 46%. In addition, the “cyclin D3 protein expression” value in the assay on PLC/PRF/5 cells was 1.4 fold.

The record behind these values is patent US20180271863A1, “TARGETING P2 PURINERGIC RECEPTORS TO TREAT HEPATOCELLULAR CARCINOMA (HCC)” (Baylor College of Medicine, priority 2015, published 2018).
